Experimental data reported in patent US10662229B2, “Spider venom peptides and methods of use for modulating sodium channels” (priority 2016, dated 2020).
Where a SMILES comes first, the peptide text is derived from it. Bridges are numbered along the chain shown (N, C = ends). [ ]: non-standard residue; d: D form. Nle = CCCC[C@H](N)C(=O)O

How the values were obtained:
Format in all cases: cell-based
[1] = target: T1, hNav1.1 (Homo sapiens, UniProt P35498); test: FLIPR membrane potential assay, hNav1.1; details: for Selectivity for Nav1.7, Nav subtype 1.1: membrane potential assay
T1 construct: host or cells: HEK293
Description: (§1) HEK293 cells stably expressing hNav1.1, hNav1.2, hNav1.3, hNav1.4, hNav1.5, hNav1.6, hNav1.7 and […] (SB Drug Discovery, Glasgow, UK) were cultured in minimum essential media (MEM) containing 10% v/v FBS supplemented with L-glutamine (2 mM) and selection antibiotics G-418 (0.5 mg/mL), blasticidin (2-4 μg/mL) and zeocin (0.5 mg/mL) as recommended by the manufacturer. CHO cells stably expressing hNav1.8 in a tetracycline-inducible system (Chantest, OH, USA) were cultured in Ham's F-12 containing 10% v/v FBS and selection antibiotics as recommended by the manufacturer. To induce hNav1.8 expression, cells were cultured in the presence of tetracycline (1 μg/mL) for 24 h at 27° C. Cells were grown in a humidified 5% CO2 incubator at 37° C., grown to 70-80% confluence, and passaged every 3-4 days using TrypLE Express (Invitrogen).
(§2) Cells were plated 48 h before the assay on 384-well black walled imaging plates at a density of 10,000 to 15,000 cells per well and were loaded with red membrane potential dye for 30 min at 37° C. (Molecular Devices, CA, USA). One vial of bulk red membrane potential dye was reconstituted to a 10× stock solution with PSS and stored at −20° C. and diluted to 1× solution with PSS on the day of the assay. […] Changes in membrane potential were assessed using the FLIPR^TETRA (excitation 515 to 545 nm, emission 565 to 625 nm) every second for 300 s after adding agonists.

[2] = target: T2, hNav1.2 (Homo sapiens, UniProt Q99250); test: FLIPR membrane potential assay, hNav1.2; details: for Selectivity for Nav1.7, Nav subtype 1.2: membrane potential assay
T2 construct: host or cells: HEK293
Description: as §1, §2

[3] = target: T3, hNav1.3 (Homo sapiens, UniProt Q9NY46); test: FLIPR membrane potential assay, hNav1.3; details: for Selectivity for Nav1.7, Nav subtype 1.3: membrane potential assay
T3 construct: host or cells: HEK293
Description: as §1, §2

[4] = target: T4, hNav1.4 (Homo sapiens, UniProt P35499); test: FLIPR membrane potential assay, hNav1.4; details: for Selectivity for Nav1.7, Nav subtype 1.4: membrane potential assay
T4 construct: host or cells: HEK293
Description: as §1, §2

[5] = target: T5, hNav1.5 (Homo sapiens, UniProt Q14524); test: FLIPR membrane potential assay, hNav1.5; details: for Selectivity for Nav1.7, Nav subtype 1.5: membrane potential assay
T5 construct: host or cells: HEK293
Description: as §1, §2

[6] = target: T6, hNav1.6 (Homo sapiens, UniProt Q9UQD0); test: FLIPR membrane potential assay, hNav1.6; details: for Selectivity for Nav1.7, Nav subtype 1.6: membrane potential assay
T6 construct: host or cells: HEK293
Description: as §1, §2

[7] = target: T7, hNav1.7 (Homo sapiens, UniProt Q15858); test: FLIPR membrane potential assay, hNav1.7; details: for Selectivity for Nav1.7, Nav subtype 1.7: membrane potential assay, reference subtype
T7 construct: host or cells: HEK293
Description: as §1, §2

[8] = target: T8, hNav1.8 (Homo sapiens, UniProt Q9Y5Y9); test: FLIPR membrane potential assay, hNav1.8; details: for Selectivity for Nav1.7, Nav subtype 1.8: membrane potential assay
T8 construct: host or cells: HEK293
Description: as §1, §2

T3 sequence (Q9NY46 whole entry): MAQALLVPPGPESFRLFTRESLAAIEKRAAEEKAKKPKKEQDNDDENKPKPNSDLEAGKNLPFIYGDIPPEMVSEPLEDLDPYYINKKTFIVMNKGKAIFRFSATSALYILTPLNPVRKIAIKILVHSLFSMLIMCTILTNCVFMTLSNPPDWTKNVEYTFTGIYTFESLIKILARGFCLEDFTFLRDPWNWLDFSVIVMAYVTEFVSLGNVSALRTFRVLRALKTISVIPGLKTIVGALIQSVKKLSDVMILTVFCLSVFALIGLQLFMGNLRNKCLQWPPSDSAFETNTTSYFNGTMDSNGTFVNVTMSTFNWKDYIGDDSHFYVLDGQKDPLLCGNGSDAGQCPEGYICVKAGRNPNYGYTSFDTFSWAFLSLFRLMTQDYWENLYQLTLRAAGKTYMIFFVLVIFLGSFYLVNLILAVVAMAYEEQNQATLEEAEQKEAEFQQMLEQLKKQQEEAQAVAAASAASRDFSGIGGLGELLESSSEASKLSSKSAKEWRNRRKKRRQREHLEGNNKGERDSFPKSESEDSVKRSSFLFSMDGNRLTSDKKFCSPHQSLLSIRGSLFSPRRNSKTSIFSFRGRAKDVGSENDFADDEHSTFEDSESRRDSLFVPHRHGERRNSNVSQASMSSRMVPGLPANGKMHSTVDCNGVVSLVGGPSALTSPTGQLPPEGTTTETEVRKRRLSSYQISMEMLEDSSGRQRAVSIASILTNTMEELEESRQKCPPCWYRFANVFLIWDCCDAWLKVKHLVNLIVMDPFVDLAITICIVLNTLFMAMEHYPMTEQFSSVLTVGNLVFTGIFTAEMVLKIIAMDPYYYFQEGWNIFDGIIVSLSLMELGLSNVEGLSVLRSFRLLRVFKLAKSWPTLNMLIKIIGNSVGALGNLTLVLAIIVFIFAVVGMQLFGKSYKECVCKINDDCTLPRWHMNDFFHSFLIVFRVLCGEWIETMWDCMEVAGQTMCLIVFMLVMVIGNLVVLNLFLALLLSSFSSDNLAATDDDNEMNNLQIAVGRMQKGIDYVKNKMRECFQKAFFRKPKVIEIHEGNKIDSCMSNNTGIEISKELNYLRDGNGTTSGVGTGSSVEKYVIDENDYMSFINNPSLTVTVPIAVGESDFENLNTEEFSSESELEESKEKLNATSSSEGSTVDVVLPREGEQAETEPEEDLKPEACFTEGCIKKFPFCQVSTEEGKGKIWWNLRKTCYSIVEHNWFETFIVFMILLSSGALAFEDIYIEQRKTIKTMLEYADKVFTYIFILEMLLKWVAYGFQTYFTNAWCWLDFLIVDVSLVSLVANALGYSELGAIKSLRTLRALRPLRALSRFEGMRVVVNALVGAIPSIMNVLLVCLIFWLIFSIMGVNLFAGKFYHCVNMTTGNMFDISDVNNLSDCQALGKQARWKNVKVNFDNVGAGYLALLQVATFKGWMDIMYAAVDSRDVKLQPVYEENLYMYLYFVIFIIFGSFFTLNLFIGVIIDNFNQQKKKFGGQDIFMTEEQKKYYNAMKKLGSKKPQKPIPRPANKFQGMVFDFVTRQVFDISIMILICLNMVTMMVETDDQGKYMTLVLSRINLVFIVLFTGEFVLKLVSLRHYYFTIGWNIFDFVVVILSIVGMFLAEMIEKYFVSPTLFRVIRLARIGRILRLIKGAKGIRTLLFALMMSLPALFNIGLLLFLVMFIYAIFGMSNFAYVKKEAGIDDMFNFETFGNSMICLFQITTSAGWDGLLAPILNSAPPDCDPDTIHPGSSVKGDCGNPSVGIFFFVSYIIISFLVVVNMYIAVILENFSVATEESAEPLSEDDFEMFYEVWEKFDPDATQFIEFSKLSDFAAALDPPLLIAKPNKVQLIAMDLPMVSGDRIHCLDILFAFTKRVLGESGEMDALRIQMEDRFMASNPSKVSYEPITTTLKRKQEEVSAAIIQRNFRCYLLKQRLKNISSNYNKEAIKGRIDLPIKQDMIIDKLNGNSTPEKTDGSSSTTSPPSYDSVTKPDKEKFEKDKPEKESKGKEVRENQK
T2 sequence (Q99250 whole entry): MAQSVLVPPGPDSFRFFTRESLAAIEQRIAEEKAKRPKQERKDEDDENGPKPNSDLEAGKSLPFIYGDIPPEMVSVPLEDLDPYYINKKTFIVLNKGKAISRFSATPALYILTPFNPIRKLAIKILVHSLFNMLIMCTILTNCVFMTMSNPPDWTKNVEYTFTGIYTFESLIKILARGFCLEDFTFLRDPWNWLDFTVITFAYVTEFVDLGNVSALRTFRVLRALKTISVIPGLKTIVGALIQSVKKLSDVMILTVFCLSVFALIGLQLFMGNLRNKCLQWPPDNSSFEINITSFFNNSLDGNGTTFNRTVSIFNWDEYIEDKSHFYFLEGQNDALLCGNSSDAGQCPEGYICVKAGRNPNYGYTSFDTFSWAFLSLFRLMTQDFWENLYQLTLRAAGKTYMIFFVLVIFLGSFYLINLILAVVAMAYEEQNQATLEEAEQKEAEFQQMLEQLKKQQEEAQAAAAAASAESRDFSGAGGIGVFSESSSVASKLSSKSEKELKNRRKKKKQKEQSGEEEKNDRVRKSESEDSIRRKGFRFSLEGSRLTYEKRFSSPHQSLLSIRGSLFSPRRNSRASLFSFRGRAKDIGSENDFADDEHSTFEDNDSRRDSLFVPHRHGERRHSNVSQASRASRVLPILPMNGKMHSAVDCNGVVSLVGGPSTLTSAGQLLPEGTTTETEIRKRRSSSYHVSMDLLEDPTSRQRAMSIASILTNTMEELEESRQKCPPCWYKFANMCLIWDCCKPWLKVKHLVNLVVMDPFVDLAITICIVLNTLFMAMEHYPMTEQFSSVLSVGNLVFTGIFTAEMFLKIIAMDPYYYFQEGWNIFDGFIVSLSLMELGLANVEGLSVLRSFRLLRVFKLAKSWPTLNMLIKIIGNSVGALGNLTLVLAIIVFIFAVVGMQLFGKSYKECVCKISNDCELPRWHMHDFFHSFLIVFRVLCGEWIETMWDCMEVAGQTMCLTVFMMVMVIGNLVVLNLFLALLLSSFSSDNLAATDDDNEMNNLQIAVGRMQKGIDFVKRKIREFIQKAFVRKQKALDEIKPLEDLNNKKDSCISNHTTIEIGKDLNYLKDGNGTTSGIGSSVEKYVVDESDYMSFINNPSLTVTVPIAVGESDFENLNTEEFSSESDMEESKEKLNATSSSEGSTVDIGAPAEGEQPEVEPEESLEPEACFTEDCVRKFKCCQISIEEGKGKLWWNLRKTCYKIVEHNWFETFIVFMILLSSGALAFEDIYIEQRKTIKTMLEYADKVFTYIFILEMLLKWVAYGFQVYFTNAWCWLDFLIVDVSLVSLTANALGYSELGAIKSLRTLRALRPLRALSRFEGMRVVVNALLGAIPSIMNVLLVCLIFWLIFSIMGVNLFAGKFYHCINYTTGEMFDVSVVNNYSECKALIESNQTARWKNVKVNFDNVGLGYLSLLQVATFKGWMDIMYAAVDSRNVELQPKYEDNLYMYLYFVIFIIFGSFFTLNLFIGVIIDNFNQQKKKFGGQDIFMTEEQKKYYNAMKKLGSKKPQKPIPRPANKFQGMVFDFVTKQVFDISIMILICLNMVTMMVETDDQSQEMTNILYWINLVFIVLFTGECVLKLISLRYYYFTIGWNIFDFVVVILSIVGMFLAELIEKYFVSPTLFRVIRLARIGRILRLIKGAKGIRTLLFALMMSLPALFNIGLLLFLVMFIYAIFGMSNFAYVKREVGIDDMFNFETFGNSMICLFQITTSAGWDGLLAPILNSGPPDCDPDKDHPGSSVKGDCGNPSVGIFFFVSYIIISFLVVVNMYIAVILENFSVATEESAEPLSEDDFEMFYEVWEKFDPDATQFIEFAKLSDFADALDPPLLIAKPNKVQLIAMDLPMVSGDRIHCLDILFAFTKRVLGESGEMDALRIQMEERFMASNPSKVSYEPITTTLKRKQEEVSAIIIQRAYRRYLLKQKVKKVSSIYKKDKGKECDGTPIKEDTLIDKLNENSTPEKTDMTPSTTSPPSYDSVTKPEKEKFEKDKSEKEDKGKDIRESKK

Row | SMILES | IC50 [1] | Selectivity for Nav1.7, Nav subtype 1.1 [1] | IC50 [2] | Selectivity for Nav1.7, Nav subtype 1.2 [2] | IC50 [3] | Selectivity for Nav1.7, Nav subtype 1.3 [3] | IC50 [4] | Selectivity for Nav1.7, Nav subtype 1.4 [4] | IC50 [5] | Selectivity for Nav1.7, Nav subtype 1.5 [5] | IC50 [6] | Selectivity for Nav1.7, Nav subtype 1.6 [6] | IC50 [7] | Selectivity for Nav1.7, Nav subtype 1.7 [7] | IC50 [8] | Selectivity for Nav1.7, Nav subtype 1.8 [8]
1 | CSCC[C@@H]1NC(=O)[C@H](Cc2ccc(O)cc2)NC(=O)[C@H](CCCNC(=N)N)NC(=O)[C@@H](NC(=O)[C@@H](N)CC(=O)O)CSSC[C@@H]2NC(=O)[C@@H]3CSSC[C@@H](C(=O)N[C@@H](C)C(=O)N[C@@H](Cc4c[nH]c5ccccc45)C(=O)N[C@@H](CC(=O)O)C(=O)N[C@@H](Cc4ccccc4)C(=O)N[C@H](C(=O)N[C@@H](Cc4ccccc4)C(=O)N[C@H](C(=O)O)[C@@H](C)O)[C@@H](C)O)NC(=O)[C@H](Cc4ccc(O)cc4)NC(=O)[C@H](CCCCN)NC(=O)[C@H](CCSC)NC(=O)[C@H](CCCCN)NC(=O)[C@H](CCCNC(=N)N)NC(=O)[C@H](CCCCN)NC(=O)[C@H](CSSC[C@H](NC(=O)[C@H](CC(=O)O)NC(=O)CNC(=O)[C@H](Cc4ccccc4)NC1=O)C(=O)N[C@@H](CCCCN)C(=O)N[C@@H](CCCCN)C(=O)N[C@@H](CC(=O)O)C(=O)N[C@@H](CCC(=O)O)C(=O)N[C@@H](CC(=O)O)C(=O)N3)NC(=O)CNC(=O)[C@H](CC(C)C)NC(=O)[C@H](Cc1c[nH]cn1)NC(=O)[C@H](CCCCN)NC2=O [[E10K]Pnc1a] (H-DCRYMFGDCKKDEDCCKHLGCKRKMKYCAWDFTFT-OH; disulfide 2-16, 9-21, 15-28) | 384 nM | 9 | 172 nM | 4 | 5000 nM | 128 | 2000 nM | 49 | 13000 nM | 326 | 820 nM | 20 | 41 nM | 1 | > 30000 nM | >700
2 | CSCC[C@@H]1NC(=O)[C@H](Cc2ccc(O)cc2)NC(=O)[C@H](CCCNC(=N)N)NC(=O)[C@@H](NC(=O)[C@@H](N)CC(=O)O)CSSC[C@@H]2NC(=O)[C@@H]3CSSC[C@@H](C(=O)N[C@@H](C)C(=O)N[C@@H](Cc4c[nH]c5ccccc45)C(=O)N[C@@H](CC(=O)O)C(=O)N[C@@H](Cc4ccccc4)C(=O)N[C@H](C(=O)N[C@@H](Cc4ccccc4)C(=O)N[C@H](C(=O)O)[C@@H](C)O)[C@@H](C)O)NC(=O)[C@H](Cc4ccc(O)cc4)NC(=O)[C@H](CCCCN)NC(=O)[C@H](CCSC)NC(=O)[C@H](CCCCN)NC(=O)[C@H](CCCNC(=N)N)NC(=O)[C@H](CCCCN)NC(=O)[C@H](CSSC[C@H](NC(=O)[C@H](CC(=O)O)NC(=O)CNC(=O)[C@H](Cc4ccccc4)NC1=O)C(=O)N[C@@H](CCC(=O)O)C(=O)N[C@@H](CCCCN)C(=O)N[C@@H](CC(=O)O)C(=O)N[C@@H](C)C(=O)N[C@@H](CC(=O)O)C(=O)N3)NC(=O)CNC(=O)[C@H](CC(C)C)NC(=O)[C@H](Cc1c[nH]cn1)NC(=O)[C@H](CCCCN)NC2=O [[E13A]Pnc1a] (H-DCRYMFGDCEKDADCCKHLGCKRKMKYCAWDFTFT-OH; disulfide 2-16, 9-21, 15-28) | 4000 nM | 29 | 566 nM | 4 | 2000 nM | 18 | 5000 nM | 36 | > 30000 nM | >217 | 8000 nM | 61 | 139 nM | 1 | > 30000 nM | >217
3 | CSCC[C@@H]1NC(=O)[C@H](Cc2ccc(O)cc2)NC(=O)[C@H](CCCNC(=N)N)NC(=O)[C@@H](NC(=O)[C@@H](N)CC(=O)O)CSSC[C@@H]2NC(=O)[C@@H]3CSSC[C@@H](C(=O)N[C@@H](C)C(=O)N[C@@H](Cc4c[nH]c5ccccc45)C(=O)N[C@@H](CC(=O)O)C(=O)N[C@@H](Cc4ccccc4)C(=O)N[C@H](C(=O)N[C@@H](Cc4ccccc4)C(=O)N[C@H](C(=O)O)[C@@H](C)O)[C@@H](C)O)NC(=O)[C@H](Cc4ccc(O)cc4)NC(=O)[C@H](CCCCN)NC(=O)[C@H](CCSC)NC(=O)[C@H](CCCNC(=N)N)NC(=O)[C@H](CCCNC(=N)N)NC(=O)[C@H](CCCCN)NC(=O)[C@H](CSSC[C@H](NC(=O)[C@H](CC(=O)O)NC(=O)CNC(=O)[C@H](Cc4ccccc4)NC1=O)C(=O)N[C@@H](CCC(=O)O)C(=O)N[C@@H](CCCCN)C(=O)N[C@@H](CC(=O)O)C(=O)N[C@@H](CCC(=O)O)C(=O)N[C@@H](CC(=O)O)C(=O)N3)NC(=O)CNC(=O)[C@H](CC(C)C)NC(=O)[C@H](Cc1c[nH]cn1)NC(=O)[C@H](CCCCN)NC2=O [[K24R]Pnc1a] (H-DCRYMFGDCEKDEDCCKHLGCKRRMKYCAWDFTFT-OH; disulfide 2-16, 9-21, 15-28) | 856 nM | 27 | 414 nM | 13 | 8000 nM | 260 | 3000 nM | 102 | > 30000 nM | >900 | > 30000 nM | >900 | 31 nM | 1 | > 30000 nM | >900
4 | CCCC[C@@H]1NC(=O)[C@H](Cc2ccc(O)cc2)NC(=O)[C@H](CCCNC(=N)N)NC(=O)[C@@H](NC(=O)[C@@H](N)CC(=O)O)CSSC[C@@H]2NC(=O)[C@@H]3CSSC[C@@H](C(=O)N[C@@H](C)C(=O)N[C@@H](Cc4c[nH]c5ccccc45)C(=O)N[C@@H](CC(=O)O)C(=O)N[C@@H](Cc4ccccc4)C(=O)N[C@H](C(=O)N[C@@H](Cc4ccccc4)C(=O)N[C@H](C(=O)O)[C@@H](C)O)[C@@H](C)O)NC(=O)[C@H](Cc4ccc(O)cc4)NC(=O)[C@H](CCCCN)NC(=O)[C@H](CCCC)NC(=O)[C@H](CCCCN)NC(=O)[C@H](CCCNC(=N)N)NC(=O)[C@H](CCCCN)NC(=O)[C@H](CSSC[C@H](NC(=O)[C@H](CC(=O)O)NC(=O)CNC(=O)[C@H](Cc4ccccc4)NC1=O)C(=O)N[C@@H](CCC(=O)O)C(=O)N[C@@H](CCCCN)C(=O)N[C@@H](CC(=O)O)C(=O)N[C@@H](CCC(=O)O)C(=O)N[C@@H](CC(=O)O)C(=O)N3)NC(=O)CNC(=O)[C@H](CC(C)C)NC(=O)[C@H](Cc1c[nH]cn1)NC(=O)[C@H](CCCCN)NC2=O [[M5,25Nle]Pnc1a] (H-DCRY[Nle]FGDCEKDEDCCKHLGCKRK[Nle]KYCAWDFTFT-OH; disulfide 2-16, 9-21, 15-28) | 2000 nM | 17 | 773 nM | 7 | 1000 nM | 10 | 3000 nM | 22 | > 30000 nM | >260 | 5000 nM | 41 | 116 nM | 1 | > 30000 nM | >260
